Data reported in US7202239B2, “Cyclohexylphenyl carboxamides tocolytic oxytocin receptor antagonists” (Wyeth, priority 2001, dated 2007).

Target: human vasopressin V1a receptor subtype (Homo sapiens, UniProt P37288)
Test: Vasopressin binding in CHO cell membranes expressing human vasopressin V1a subtype receptors
Details: 100 nM, [3H]Manning ligand
Text: Vasopressin Binding in Chinese Hamster Ovary Cell Membranes Expressing Human Vasopressin V1a Subtype Receptors
Chinese hamster ovary cells (CHO cells) stably transfected with the human vasopressin V1a subtype receptors were either obtained from Biosignal Inc., 1744 rue Williams, Montreal, Quebec, Canada or obtained from M. Thibonnier, Case Western Reserve University School of Medicine, Cleveland, Ohio. A. Passaging and Amplification of Cells: CHO cells transfected with the human vasopressin V1a subtype receptors obtained from M. Thibonnier (pZeoSV vector) are allowed to grow to confluency (approx. >90%) in T-150 flasks under sterile conditions, in a cell culture medium of F-12 Nutrient Mixture (HAM) with L-glutamine (Gibco Cat. # 11765-054) containing 15 mM HEPES (Gibco Cat. 15630-080), 1% antibiotic/antimycotic (add 5 mL 100×, Gibco Cat. 15240-062 per 500 mL F-12), 250 μg/mL Zeocin (add 1.25 mL of 100 mg/mL Invitrogen R-250-01 per 500 mL F-12) and 10% Fetal Bovine Serum (Qualified, heat inactivated, Gibco Cat. # 16140-063). The medium is removed by aspiration and the cells are washed with 10 mL of Hank's Balanced Salt solution (Gibco Cat. # 14175-095). The salt solution is removed by aspiration and the cells are trypsinized with 5 mL of trypsin-EDTA (0.05% trypsin, 0.53 mM EDTA-4Na, Gibco Cat. # 25300-070) for 1 min. The trypsin is removed by aspiration and the cells dislodged by tapping. Cell Culture medium (eg, 30 mL for 1:30 split) is immediately added and mixed well to inactivate trypsin. 1 mL of detached cells is added to new culture flasks containing fresh cell culture medium (eg, into 25 mL per T-150 flask), and mixed gently. The cells are incubated at 37° C. in 5% CO2. The medium is changed at 3 to 4 days interval (or as appropriate). The cells grow to confluency (approx. >75%–95%) within 7–8 days. All steps are done under sterile conditions. B. Membrane Preparation: The cells are washed twice gently with Hank's Balanced Salt solution (e.g,. use 10 mL per T-150 flask). The excess is removed and the cells are bathed for 15–30 min. in an enzyme-free Cell Dissociation Buffer (e.g. use 8 mL Hank's Based, Gibco Cat. # 13150-016 per T-150 flask) until the cells are loosened. The contents are transferred to centrifuge tubes (50 mL) kept in an ice bath. All subsequent steps are done at 4° C. The tubes are centrifuged at 300×g for 15 min (1380 rpm on SORVAL, Model RT6000D, using rotor for the 50 mL tubes). The supernatant is discarded and the cells suspended in homogeneizing buffer(10 mM Tris-HCl containing 0.25 M sucrose and 1 mM EDTA, pH 7.4) ensuring that the volume of the buffer is about ten times the volume of the cell pellet. The cells are pooled into a centrifuge tube (50 mL) and homogenized with Polytron at setting 6 for 10 sec. The homogenate is transferred into a Potter-Elvjehm homogenizer and homogenized with 3 strokes. The homogenate is centrifuged at 1500× g for 10 min at 4° C. (3100 rpm using SORVAL, model RT6000D, using the rotor for 50 mL tubes). The pellet is discarded. The supernatant is centrifuged at 100,000×g for 60 min. at 4° C. (Beckman L8-80M ultracentrifuge; spin at 37,500 rpm with rotor type 70 Ti for 50 mL tubes; 38,000 rpm with type 80Ti for 15 mL tubes; or 35,800 rpm with rotor type 45Ti). The supernantant is discarded and the pellet suspended in 3 to 4 mL of Tris buffer (50 mM TRIS-HCl, pH 7.4). The protein content is estimated by the Bradford or Lowry method. The volume of the membrane suspension is adjusted with the membrane buffer (50 mM Tris-HCl containing 0.1% BSA and 0.1 mM PMSF) to give 3.0 mg/mL (or as appropriate) of protein. The membranes are aliquoted and stored at −70° C. C. […]

Sequence of human vasopressin V1a receptor subtype (P37288 whole entry): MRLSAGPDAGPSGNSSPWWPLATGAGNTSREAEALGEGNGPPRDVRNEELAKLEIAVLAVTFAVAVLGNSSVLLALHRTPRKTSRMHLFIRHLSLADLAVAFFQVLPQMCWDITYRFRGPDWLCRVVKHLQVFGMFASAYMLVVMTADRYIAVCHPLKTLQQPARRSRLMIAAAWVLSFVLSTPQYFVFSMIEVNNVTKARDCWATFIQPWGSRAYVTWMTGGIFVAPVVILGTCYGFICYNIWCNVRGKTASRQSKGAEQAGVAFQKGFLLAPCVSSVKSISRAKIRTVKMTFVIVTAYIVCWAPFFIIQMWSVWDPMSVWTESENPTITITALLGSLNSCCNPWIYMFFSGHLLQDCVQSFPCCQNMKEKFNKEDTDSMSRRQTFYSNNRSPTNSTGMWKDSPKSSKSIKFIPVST

Row | inhibition at 0.1 µM | V1a % inhibition at 100 nM | Structure (SMILES)
1 | 3% | – | O=C(NCc1ccccn1)c1ccc2n1Cc1ccccc1N(C(=O)c1ccc(C3CCCCC3)cc1)C2 [Example 50, 10-(4-Cyclohexyl-benzoyl)-N-(2-pyridinylmethyl)-10,11-dihydro-5H-pyrrolo[2,1-c][1,4]benzodiazepine-3-carboxamide]
2 | -1% | – | O=C(NCc1cccnc1)c1ccc2n1Cc1ccccc1N(C(=O)c1ccc(C3CCCCC3)cc1)C2 [Example 51, 10-(4-Cyclohexyl-benzoyl)-N-(3-pyridinylmethyl)-10,11-dihydro-5H-pyrrolo [2,1-c][1,4]benzodiazepine-3-carboxamide]
3 | 19% | – | CN(CCc1ccccn1)C(=O)c1ccc2n1Cc1ccccc1N(C(=O)c1ccc(C3CCCCC3)cc1)C2 [Example 52, 10-(4-Cyclohexyl-benzoyl)-N-methyl-N-[2-(2-pyridinyl)-ethyl]-10,11-dihydro-5H-pyrrolo[2,1-c][1,4]benzodiazepine-3-carboxamide]
4 | 20% | – | O=C(NCc1ccncc1)c1ccc2n1Cc1ccccc1N(C(=O)c1ccc(C3CCCCC3)cc1)C2 [Example 53, 10-(4-Cyclohexyl-benzoyl)-N-(4-pyridinylmethyl)-10,11-dihydro-5H-pyrrolo[2,1-c][1,4]benzodiazepine-3-carboxamide]
5 | – | 0% | O=C(c1ccc2n1Cc1ccccc1N(C(=O)c1ccc(C3CCCCC3)cc1)C2)N1CCN(c2ccncc2)CC1 [Example 54, [10-(4-Cyclohexyl-benzoyl)-10,11-dihydro-5H-pyrrolo[2,1-c][1,4]benzpdiazepin-3-yl][4-(4-pyridinyl)-1-piperazinyl]-methanone]
6 | 50% | – | CN(CCc1ccncc1)C(=O)c1ccc2n1Cc1ccccc1N(C(=O)c1ccc(C3CCCCC3)cc1)C2 [Example 55, 10-(4-Cyclohexyl-benzoyl)-N-methyl-N-[2(4-pyridinyl)ethyl]-10,11-dihydro-5H-pyrrolo[2,1-c][1,4]benzodiazepine-3-carboxamide]
7 | 16% | – | O=C(c1ccc(C2CCCCC2)cc1)N1Cc2ccc(C(=O)n3ccnc3)n2Cc2ccccc21 [Example 56, 1H-Imidazol-1-yl-[10-(4-cyclohexyl-benzoyl)-10,11-dihydro-5H-pyrrolo[2,1-c][1,4]benzodiazepin-3-yl]-methanone]
8 | -5% | – | CN(Cc1cccnc1)C(=O)c1ccc2n1Cc1ccccc1N(C(=O)c1ccc(C3CCCCC3)cc1)C2 [Example 57, 10-(4-Cyclohexyl-benzoyl)-N-methyl-N-(3-pyridinylmethyl)-10,11-dihydro-5H-pyrrolo[2,1-c][1,4]benzodiazepine-3-carboxamide]
